Where two headings read alike, the source gives them in different places.
Tests used:
[1] = tested on: Cryptococcus neoformans ATCC 13690; assay: microbe, parasite or virus in culture; assay type: cell-based
Description: (§1) The anti-fungal activity of Domain III derived peptides was evaluated against a variety of fungal species, including species of Candida. Cryptococcus, Fusarium, Trichophyton, and Aspergillus, by an additional assay protocol utilizing Alamar Blue. Alamar Blue is an indicator dye formulated to measure quantitatively the proliferation of a variety of human or animal cells, bacteria, or fungi. It consists of an oxidation-reduction (REDOX) indicator that yields a colorimetric change in response to metabolic activity. For these experiments, species of Candida and Cryptococcus were grown in Sabouraud's dextrose broth (SDB) overnight. Strains of filamentous fungi (Aspergilius, Fusanum, Trichophyton) were obtained by irrigation of a confluent culture from a petri dish. Cells were washed and adjusted to a concentration of 5.0×10^3/mL in fresh SDB. […] Controls included amphotericin B, fluconazole, ketoconazole and griseofulvin. Antifungal drugs were also diluted in the same manner. Assays were performed in 96-well microuiter plates. […] The wells to be plated were determined by OD590 readings. The lowest concentration of peptide which maintained the blue color (or OD reading) of the blank was chosen along with the next two higher concentrations. Plates were allowed to grow for 18-48 hours depending on the rate of growth of each fungus. Minimal fungicidal activity (MFC) was determined as a 99.9% killing of the starting inoculum.

[2] = tested on: Fusarium solani ATCC 36031; assay: microbe, parasite or virus in culture; assay type: cell-based
Description: as §1

[3] = tested on: Aspergillus niger ATCC 16404; assay: microbe, parasite or virus in culture; assay type: cell-based
Description: as §1

[4] = tested on: Candida parapsilosis ATCC 22019; assay: microbe, parasite or virus in culture; assay type: cell-based
Description: as §1

Aspergillus ATCC 13073 = assay: microbe, parasite or virus in culture; assay type: cell-based
Description: as §1

[5] = tested on: Candida glabrata ATCC 2001; assay: microbe, parasite or virus in culture; assay type: cell-based
Description: as §1

Candida lusitaniae = assay: Radial diffusion assay, Candida species (Table 2); assay type: cell-based
Description: (§2) The anti-fungal activity of Domain III derived peptides was also evaluated in vitro against a variety of fungal species, including Candida glabrata, Candida krusei, Candida lusitaniae, Candida parapsilosis, and Candida tropicalis. For these experiments, one colony of each of the above-listed Candida strains was picked from a Sabouraud's dextrose agar (SDA) plate and inoculated into 5 mL of Sabouraud's dextrose broth (SDB, 2% dextrose and 1% neopeptone) or, for C. krusei, Yeast Malt broth (YM, Becton Dickenson, Cockeysville, Md., cat no. BL 11405) in 12 mL polyproplyene snap-cap tubes. The tube cultures were incubated overnight with shaking at 37° C.
(§3) Cultures were harvested when the OD570 of a 1:10 dilution was greater than or equal to the following values: 0.083 for Candida glabrata, 0.154 for Candida krusei, 0.117 for Candida lusitaniae, 0.076 for Candida parapsilosis, and 0.192 for Candida tropicalis. Cells were centrifuged for 7 minutes in an Eppendorf microfuge at 3,000 rpm (about 1,500 g). The cell pellet was resuspended in 1 mL PBS and approximately 1×10^7 cells in about 0.5 mL were added to 10 mL of cooled underlay agar (3% SBD, 1% agarose, 0.02% Tween 20, 10 mM sodium phosphate buffer, pH 7.4 at about 45° C.). The suspension was poured into square petri plates, allowed to solidify, and wells cut as described above.
(§4) Peptides were two-fold serially diluted with D-PBS from about 20 μL of a starting concentration of approximately 1 mg/mL. Five μL of peptide dilution were added per well and allowed to diffuse for at least about 30 minutes into the agar at […] (to allow complete diffusion). Then 10 mL of molten overlayer agarose (6% SDB, 1% agarose, 10 mM sodium phosphate buffer, pH 7.4 at about 45° C.) were added and the plates were incubated inverted at […] overnight. Plates were stained with a dilute Coomassie solution, inhibition zones were measured with calipers and net areas were calculated, then converted to pmole values by PROBIT analysis.

Candida tropicalis = assay: Radial diffusion assay, Candida species (Table 2); assay type: cell-based
Description: as §2, §3, §4

Candida krusei = assay: Radial diffusion assay, Candida species (Table 2); assay type: cell-based
Description: as §2, §3, §4

Candida glabrata = assay: Radial diffusion assay, Candida species (Table 2); assay type: cell-based
Description: as §2, §3, §4

Candida parapsilosis = assay: Radial diffusion assay, Candida species (Table 2); assay type: cell-based
Description: as §2, §3, §4

in vitro = in vitro ADME, rat or human serum; details: serum, half-life of peptide in serum as detected by HPLC analysis; read-out: HPLC Peptide in Serum t ½ (converted)
Description: For these serum stability experiments, peptides were prepared by solid phase peptide sythesis and purified to 94% or greater purity as described in Example 1. Blood was collected from metaphane anesthesized rats by aortic bleed into Vacutainer™ tubes and allowed to clot at room temperature for approximately 30 minutes, then centrifuged at 3000 rpm (about 1000×g) for 10 minutes at room temperature and the serum aspirated. In addition, frozen human serum (North American Biologics, Inc., Miami, Fla., cat. no. 2140, lot no. 94115) was thawed at room temperature and filtered through a 0.45 μm membrane before use.
A 1 mg/mL solution of an exemplary XMP peptide to be tested was added to an equal volume of either rat or human serum described above and maintained at 37° C. At 0, 1, 2, and 4 hours, 100 μL were removed and processed by solid phase extraction for HPLC analysis as follows. Serum samples were prepared for HPLC using C-18 Sep-Pak cartridges (1 mL cartridge with 100 mg of sorbent, Waters Corp., Milford, Mass.). One hundred μL of serum sample were added to an equal volume of 1% TFA and mixed for 30 seconds on a Vortex mixer. The sample was then applied to a C-18 Sep-Pak cartridge that had been conditioned by washing with 1 mL of methanol followed by 1 mL Milli-Q water. Weakly reed components were eluted by washing with 1 mL of 0. 1% TFA. The bound peptide was eluted with two volumes of 250 μL 80% acetonitrile/0.065% TFA.
The material eluted from the Sep-Pak cartridge was analyzed on a Michrom Ultaafast Microprotein Analyzer equipped with a 150 mm×1 mm, 5μ particle, 300 Å pore C-8 Zorbax column. The column oven was set to 40° C., the flow rate was 100 μL/minute, and injection volumes were typically 5-10 μL. HPLC was performed using 5% acetonitrile/0.1% TFA in water as mobile phase A, and 80% acetonitrile/0.065% TFA as mobile phase B. The eluate was monitored spectiophotometrically at 214 nm. Peptide standards were dissolved in mobile phase A at 0. 1 mg/mL. The gradient was 25-35% B/10 minutes followed by a 5 minute wash step of 100% B and reequilibration at 25% B for 10 minutes.

Row | Compound | Minimum Fungicidal Concentration, Cryptococcus neoformans ATCC 13690 [1] [µg/mL] | Minimum Fungicidal Concentration, Fusarium solani ATCC 36031 [2] [µg/mL] | Minimum Fungicidal Concentration, Aspergillus niger ATCC 16404 [3] [µg/mL] | Minimum Fungicidal Concentration, Candida parapsilosis ATCC 22019 [4] [µg/mL] | Minimum Fungicidal Concentration, Aspergillus ATCC 13073 (Aspergillus ATCC 13073) [µg/mL] | Minimum Fungicidal Concentration, Candida glabrata ATCC 2001 [5] [µg/mL] | Anti-fungal activity: pmol/30 mm^2 zone, Candida lusitaniae (Candida lusitaniae) [pmol/30 mm^2 zone] | Anti-fungal activity: pmol/30 mm^2 zone, Candida tropicalis (Candida tropicalis) [pmol/30 mm^2 zone] | Anti-fungal activity: pmol/30 mm^2 zone, Candida krusei (Candida krusei) | Anti-fungal activity: pmol/30 mm^2 zone, Candida glabrata (Candida glabrata) | Anti-fungal activity: pmol/30 mm^2 zone, Candida parapsilosis (Candida parapsilosis) | half-life at 0.5 mg/mL (in vitro) [h] | Minimum Fungicidal Concentration, Cryptococcus neoformans ATCC 13690 ([1]; ATCC 13690) [µg/mL] | Minimum Fungicidal Concentration, Fusarium solani ATCC 36031 ([2]; ATCC 36031) [µg/mL] | Minimum Fungicidal Concentration, Aspergillus niger ATCC 16404 ([3]; ATCC 16404) [µg/mL] | Minimum Fungicidal Concentration, Candida parapsilosis ATCC 22019 ([4]; ATCC 22019) [µg/mL] | Minimum Fungicidal Concentration, Aspergillus ATCC 13073 (Aspergillus ATCC 13073; ATCC 13073) [µg/mL] | Minimum Fungicidal Concentration, Candida glabrata ATCC 2001 ([5]; ATCC 2001) [µg/mL]
1 | C[C@@H]1[C@H](O)[C@@H](C)/C=C/C=C/C=C/C=C/C=C/C=C/C=C/[C@H](O[C@@H]2O[C@H](C)[C@@H](O)[C@H](N)[C@@H]2O)C[C@@H]2O[C@](O)(C[C@@H](O)C[C@@H](O)[C@H](O)CC[C@@H](O)C[C@@H](O)CC(=O)O[C@H]1C)C[C@H](O)[C@H]2C(=O)O [Amphotericin B, amphotericin B, reference compound] | 1.25 | 0.62 | 5.00 | 5.0 | 12.50 | 0.32 | 35 | 108 | 120 pmol/30 mm^2 zone | <17 pmol/30 mm^2 zone | 91 pmol/30 mm^2 zone | – | – | – | – | – | – | –
2 | H-KSKVGWLIQLFHKK-NH2 [XMP.13] | – | – | – | – | – | – | 746 | 452 | 1,747 pmol/30 mm^2 zone | 1,022 pmol/30 mm^2 zone | 1,502 pmol/30 mm^2 zone | 2.5 | – | – | – | – | – | –
3 | H-SKVKWLIQLFHKK-NH2 [XMP.284] | – | – | – | – | – | – | – | – | – | – | – | 4.2 | 0.63 | 0.31 | 2.5 | >10.0 | 12.50 | >10.0

Reference: US6664231B1, “Anti-fungal peptides” (priority 1993, dated 2003)
